Active and inactive are the calls of the source.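 The calls were made as follows: active = a drop in nitrite signal whose fitted half-maximal concentration is at most ten times the top tested dose; inconclusive = flat fit with 30 to 70% inhibition, or poor curve fit; inactive = the rest.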 Bounds are passed on as bounds.

Tested on in the first experiment: not listed separately
The experiment in a line: suppression of NO production in INS-1E cells – cell-based, Griess absorbance, dry powder, set 3, dose response (AID 488870). The settings on record: INS-1E cytokine-induced nitrite, Griess absorbance, 48 h; at 19.5 µM (top of the series). Background: Nitrite, measured by Griess reagent, commonly stands in for NO production.
For `COc1ccc(S(=O)(=O)N(C)C[C@@H]2Oc3c(NC(=O)NC(C)C)cccc3C(=O)N([C@@H](C)CO)C[C@H]2C)cc1`, the activity change, negative = inhibition is 7.35% (inactive).

Turning to `COc1ccc(S(=O)(=O)N(C)C[C@@H]2Oc3ccc(NC(=O)Nc4cccc5ccccc45)cc3C(=O)N([C@@H](C)CO)C[C@H]2C)cc1`, the activity change, negative = inhibition was -15.4% (inactive).

For the molecule `COc1ccc(S(=O)(=O)N(C)C[C@@H]2Oc3c(NC(=O)Nc4ccc(C(F)(F)F)cc4)cccc3C(=O)N([C@@H](C)CO)C[C@H]2C)cc1`, the activity change, negative = inhibition was -18.3% (inactive).

As for `COc1ccc(S(=O)(=O)N(C)C[C@@H]2Oc3c(NC(=O)C4CCCCC4)cccc3C(=O)N([C@@H](C)CO)C[C@H]2C)cc1`, the activity change, negative = inhibition is -0.334% (inactive).

In the next experiment the test system is INS-1E cytokine-induced nitrite, Griess absorbance, 48 h. The description is as above.
Conditions: not given
Take `Cc1ccc(S(=O)(=O)N(C)C[C@H]2Oc3c(NC(=O)Nc4cccc5ccccc45)cccc3C(=O)N([C@@H](C)CO)C[C@@H]2C)cc1`: the AC50 was > 19.5 µM (inactive).

Turning to `C[C@@H]1CN([C@H](C)CO)C(=O)c2cccc(NC(=O)Nc3ccccc3)c2O[C@H]1CN(C)S(=O)(=O)c1ccc(F)cc1`, the AC50 is > 19.5 µM (inactive).

A word on the AC50: it is the concentration giving half of the maximal activity seen.

The record behind these values is PubChem BioAssay AID488870 (Broad Institute, 2010).
